Experiments:
GAL-4 DBS = conditions: read-out: Kd for binding; cited from earlier work
SJL mice with acute EAE = assay: Mouse acute EAE model, daily clinical scoring; type: in vivo; conditions: Mesopram 9 mg/kg, Prednisolone 2.5 mg/kg, IP twice daily

Compound | Kd (GAL-4 DBS) [nM] | clinical scores of EAE, positive controls (SJL mice with acute EAE; first study) | clinical scores of EAE, positive controls (SJL mice with acute EAE; second study)
GAL-4 residues 1-100: N-terminal DNA binding fragment of yeast GAL-4 protein | 3 | – | –
C[C@]12C=CC(=O)C=C1CC[C@@H]1[C@@H]2[C@@H](O)C[C@@]2(C)[C@H]1CC[C@]2(O)C(=O)CO [Prednisolone, reference compound] | – | significantly decreased clinical scores | significantly decreased clinical scores
CCCOc1cc([C@]2(C)CNC(=O)O2)ccc1OC [Mesopram, reference compound] | – | significantly decreased clinical scores | significantly decreased clinical scores
